According to patent publication EP2703003A1, “A pomegranate extract and compositions containing pomegranate polyphenols for treating or preventing diseases or physiopathological conditions associated with an excessive gene expression and/or physiological activity of interleukin-6” (Probelte Biotecnologia S.L., priority 2012, dated 2014):
Where two headings read alike, the source gives them in different places.

How the values were obtained:
[1] = test system: dermal papilla hair follicle cells; details: 24 hours, 270 picog/mL at dose 0
Protocol: In another independent study, in vitro cultures of dermal papilla hair follicle cells grown using DMEM as a culture medium were seeded at a density of 1.5 x 10^5 cells per 50 mm of plate surface and incubated overnight. Then 3 consecutive washes with PBS were performed and DMEM culture medium supplemented with variables amounts of DHT was added to each of the cultures; specifically three doses were tested: 0, 25 and 100 nanoM. The culture medium was sampled after 24 hours to measure the concentration of interleukin-6 by means of ELISA.

[2] = side effect, background statement; cited from earlier work

Structure (SMILES) | mean concentration of interleukin-6 in the culture media ([1]; 25 nanoM) [picog/mL] | mean concentration of interleukin-6 in the culture media ([1]; 100 nanoM) [picog/mL] | itchy scalp [2]
C[C@]12CCC(=O)C[C@@H]1CC[C@@H]1[C@@H]2CC[C@]2(C)[C@@H](O)CC[C@@H]12 [DHT, 5-dihydrotestosterone] | 1270 | 2190 | –
Nc1cc(N2CCCCC2)nc(N)[n+]1[O-] [Minoxidil] | – | – | 1.5 % of patients
